The target in test [1] is T1, angiotensin II type 1 receptor (Oryctolagus cuniculus, UniProt P34976).
T1 construct: By using a specimen of isolated rabbit blood vessels; from tissue; host or cells: rabbit (New Zealand White) thoracic aorta ring
T1 sequence (P34976 1-359): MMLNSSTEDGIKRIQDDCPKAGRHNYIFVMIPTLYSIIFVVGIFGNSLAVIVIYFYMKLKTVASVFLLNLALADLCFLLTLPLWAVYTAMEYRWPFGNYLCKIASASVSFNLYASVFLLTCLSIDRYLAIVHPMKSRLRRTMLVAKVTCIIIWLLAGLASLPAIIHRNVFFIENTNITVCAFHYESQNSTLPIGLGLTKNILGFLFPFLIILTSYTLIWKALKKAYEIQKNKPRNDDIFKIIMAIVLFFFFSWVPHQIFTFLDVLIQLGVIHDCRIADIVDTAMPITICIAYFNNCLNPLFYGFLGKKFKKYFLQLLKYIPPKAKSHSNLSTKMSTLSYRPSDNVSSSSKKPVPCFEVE
The test is described as follows: Angiotensin II receptor antagonistic activity in isolated rabbit blood vessels (thoracic aorta ring, angiotensin II-induced contraction). Type of test: cell-based. The conditions noted are these: 0.1 μM test compound, angiotensin II (10 nM)-induced contraction, read-out: Angiotensin II activity inhibitiom rate (%) at 0.1 μM concentration.
Protocol: By using a specimen of isolated rabbit blood vessels, antagonistic activity of the compounds of the invention against angiotensin II type 1 receptor was estimated from a dose-response curve of angiotensin II-induced blood vessel contraction. Specifically, the specimen of thoracic aorta ring of a rabbit (New Zealand White: male, 2.4 to 3.0 kg) was suspended in a magnus bath filled with Krebs-Henseleite buffer (composition: 118 mM NaCl, 4.7 mM KCl, 2.55 mM CaCl2, 1.18 mM MgSO4, 1.18 mM KH2PO4, 24.88 mM NaHCO3, and 11.1 mM D-glucose), and angiotensin II (10 nM)-induced contraction was obtained in the presence of the compounds of each test (1 nmol/L to 10 μmol/L). During the measurement, the inside temperature of the magnus bath was maintained at 37° C. and the bath was continuously ventilated with a sufficient amount of mixed gas (95% O2 and 5% CO2). The angiotensin II-induced contraction was converted into a relative value (%) that is based on the angiotensin II (0.1 μM)-induced contraction in the absence of the compounds of each example.

In another test the target is T2, human PPARγ2 (Homo sapiens, UniProt P37231).
T2 construct: the amino acids 182 to 505 of human PPARγ2; expressed in transfected cells; host or cells: COS7 cells (African green monkey kidney)
T2 sequence (P37231 182-505): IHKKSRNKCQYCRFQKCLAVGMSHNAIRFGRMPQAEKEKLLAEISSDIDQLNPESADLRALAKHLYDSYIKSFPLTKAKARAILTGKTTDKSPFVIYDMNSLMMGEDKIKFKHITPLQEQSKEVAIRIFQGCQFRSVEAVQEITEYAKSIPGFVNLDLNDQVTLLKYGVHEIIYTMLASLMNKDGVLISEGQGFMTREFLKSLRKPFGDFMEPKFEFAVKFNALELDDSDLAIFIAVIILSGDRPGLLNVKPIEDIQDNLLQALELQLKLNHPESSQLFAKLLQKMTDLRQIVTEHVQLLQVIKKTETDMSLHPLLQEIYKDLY
The test is described as follows: PPARγ activation activity, Gal4-PPARγ2 LBD luciferase transfection assay using COS7 cells. It is filed as cell-based. The conditions noted are these: Gal4-human PPARγ2 LBD chimera, 16 hours, rosiglitazone = 100%. The protocol: The agonistic activity of the compounds of the invention on PPARγ was measured based on the transfection assay using COS7 cells (DS Pharma Biomedical Co., Ltd., Osaka, Japan), which are the cell line derived from the kidney of the African green monkey. COS7 cells were cultured under 5% CO2 concentration, and DMEM medium containing 10% fetal bovine serum, glutamic acid, and antibiotics was used as a medium.
As an expression vector, a chimera in which DNA binding domain of Gal4, which is a yeast transcription factor, and ligand binding domain of human PPARγ2 are fused, i.e., a fused product between the amino acids 1 to 147 of Gal4 transcription factor and the amino acids 182 to 505 of human PPARγ2, was used. Furthermore, as a reporter vector, a firefly luciferase containing five copies of Gal4 recognition sequence in the promoter region was used. Plasmid transfection to the cells was performed according to a method which uses jetPEI (trade name, manufactured by Funakoshi Co., Ltd., Tokyo, Japan). Furthermore, β-galactosidase expression vector was employed as an internal standard.
After the transfection of the cells, the medium was replaced with a DMEM medium (containing 1% serum) added with the test compound, and the cells were further cultured for 16 hours. After that, the luciferase activity and β-galactosidase activity in the cell lysis solution were measured.
For the present test, dimethyl sulfoxide (DMSO) was used for dissolution and dilution of the test compounds, and during the cell treatment, the DMSO concentration in DMEM medium (containing 1% serum) was adjusted to 0.1%. As a positive compound, rosiglitazone (trade name, manufactured by ALEXIS Corporation, Switzerland) was used. The luciferase activity (%) of the test compounds (1 to 30 μmol/L) was calculated when the luciferase activity of rosiglitazone (3 to 10 μmol/L) is 100% and the luciferase activity in the absence of the test compound is 0%. The 50% effective concentration of the test compound (EC50, 50% effect concentration) was calculated by using SAS Preclinical Package Ver 5.0 (trade name, manufactured by SAS institute Japan Co., Tokyo, Japan), which is a statistical analysis program.
EC50 values of these compounds are described in Table 2. […] Under the same condition, the PPARγ activation activity of telmisartan, i.e., EC50, was 1 to 5 μM.

Test [2] concerns Zucker diabetic fatty (ZDF) rats. The test is described as follows: Activity for diabetic nephropathy in Zucker diabetic fatty rats. Type of test: in vivo, rat. The conditions noted are these: 3 mg/kg once a day for 15 weeks, FIG. 5. The protocol: By using 8-week old Zucker diabetic fatty (ZDF) rats, the body weight, the elimination amount of urinary total protein (UTP), the plasma triglyceride concentration (TG), and the plasma total cholesterol concentration (TC) of each rat were measured before administration of the medicine, and group separation was performed by blocking assignment so that there was no variation of these values between respective groups. Solvent control (0.5% MC), 3 mg/kg telmisartan, 3 mg/kg of the compound of Example 21, and 3 mg/kg of the compound of Example 23 were administered iteratively for 15 weeks once a day. UTP, TG, and TC were measured according to a general method during the administration period at 4, 8, 12, and 15 weeks after the administration.
Vehicle, Telmisartan, Compound 23, and Compound 21 in FIGS. 4, 5, and 6 represent solvent control, telmisartan, the compound of Example 23, and the compound of Example 21, respectively. The horizontal axis of FIG. 4-1 represents time (weeks after administration), and the vertical axis represents the elimination amount of urinary total protein per 18 hours. The data in FIG. 4-1 represents average values of each individual in each point, wherein -●- represents Vehicle (solvent control), -♦- represents Telmisartan, -▪- represents Compound 23 (the compound of Example 23), and -▴- represents Compound 21 (the compound of Example 21). The vertical axis of FIG. 4-2 represents the elimination amount of urinary total protein per 18 hours. The data in FIG. 4-2 represents individual values and average values of each individual +standard deviation.
The vertical axis of FIG. 5 represents the plasma triglyceride concentration. The data in FIG. 5 represents individual values and average values of each individual.
The vertical axis of FIG. 6 represents the plasma total cholesterol concentration. The data in FIG. 6 represents individual values and average values of each individual.
Furthermore, it was believed that one reason for the potent activity may be related to improving activity of lipid metabolism, and it is believed that the potent activity is attributed to activities other than the angiotensin receptor antagonistic activity.

A further test relates to db/db mice. Put plainly: Impaired glucose tolerance improving activity in type 2 diabetes model mouse. Type of test: in vivo. The conditions noted are these: oral once a day, Example 23 10 mg/kg, Example 21 30 mg/kg, telmisartan 30 mg/kg. On the procedure: By using 7-week old db/db mice, the body weight and the plasma glucose concentration of each mouse were measured before administration of the medicine, and group separation was performed by blocking assignment so that there was no variation of these values between respective groups. Solvent control (0.5% MC), 5 mg/kg rosiglitazone, 30 mg/kg telmisartan, 10 mg/kg of the compound of Example 23, and 30 mg/kg of the compound of Example 21 were orally administered iteratively for 4 weeks, once a day. Blood collecting was performed from the orbital vein plexus, and the plasma glucose concentration was measured at 2 weeks after the initiation of the administration. Furthermore, oral glucose tolerance test was performed at 4 weeks after the initiation of the administration. Specifically, the mouse was fasted for 24 hours from the night before the glucose tolerance test, and then a glucose solution was orally administered at a dose of 2 g/kg. The blood was collected from the tail vein of the mouse at 15, 30, 60, and 120 minutes after the administration of the glucose solution, and the concentration of the plasma glucose was measured. The area surrounded with the measured plasma glucose concentration and the time was taken as the area under the curve (AUC), and AUC for 120 minutes after administration of the glucose solution was estimated from the trapezoidal method.
Vehicle, Rosiglitazone, Telmisartan, Compound 23, and Compound 21 in FIGS. 2 and 3 represent solvent control, rosiglitazone, telmisartan, the compound of Example 23, and the compound of Example 21, respectively. The vertical axis of FIG. 2 represents the plasma glucose concentration. The data in FIG. 2 represents individual values and average values of each individual. The vertical axis of FIG. 3 represents the area under the curve surrounded with the plasma glucose concentration and the time (for 120 minutes after administration of the glucose solution). The data in FIG. 3 represents individual values and average values of each individual. […] Such activities were not confirmed for the telmisartan administration group.

The values that follow come from patent US8778954B2, “Phenylpyridine derivative and medicinal agent comprising same” (Kowa Company, Ltd., priority 2009, dated 2014).

Usually EC50 stands for the concentration needed to bring the measured effect to its halfway point. For the compound `CCCCc1nc(C)n(-c2ncc(OCC)cn2)c(=O)c1Cc1ccc(-c2ccccc2-c2noc(=O)[nH]2)nc1` [Example 17, 3-{2-{5-{[4-butyl-1-(5-ethoxypyrimidin-2-yl)-2-methyl-6-oxo-1,6-dihydropyrimidin-5-yl]methyl}pyridin-2-yl}phenyl}-1,2,4-oxadiazol-5(4H)-one], the inhibition at 0.1 µM in test [1] was determined as 52.1%. The compound also gave an EC50 at human PPARγ2 of 3.12 µM.

Consider `CCCc1nc2c(C)cc(-c3nc4ccccc4n3C)cc2n1Cc1ccc(-c2ccccc2C(=O)O)cc1` [telmisartan, reference compound], for which the plasma triglyceride concentration result in test [2] is recorded as “such activity was not found”. The plasma glucose concentration result in the test with db/db mice (2 weeks after initiation, FIG. 2) is “not confirmed”. The “AUC of plasma glucose in the glucose tolerance test (120 minutes after glucose solution)” value in the test on db/db mice (4 weeks, glucose 2 g/kg, FIG. 3) is reported as “not confirmed”. Moreover, the EC50 at human PPARγ2 lay within 1 to 5 µM.
